According to patent publication US9956222B2, “Quinazoline derivative as tyrosine-kinase inhibitor, preparation method therefor and application thereof” (Xuanzhu Pharma Co., Ltd., priority 2011, dated 2018):

Legend:
[1] = tested on: H1975 Cells (NSCLC, non-small cell lung cancer); assay: In vitro cellular inhibitory activity, XTT method; assay type: cell-based; conditions: Homo sapiens, NCI-H1975, 72 hours, read-out: in vitro cellular inhibitory activities on H1975 IC50
Method: (§1) In vitro cellular inhibitory activity of the present compounds
(§2) 1. Formulating the agents and the compounds
(§3) 2) Formulating the XTT working liquor: […]
(§4) The mixture was filtered, packaged separately, and used immediately or within one week. It is necessary for all of the processes to be kept in darkness.
(§5) 3) Formulating test compounds
(§6) Formulating a stock solution of test compound: […]
(§7) The compound powder was dissolved into DMSO until a concentration of 10 mM reached.
(§8) Formulating gradient dilute solutions of test compound: […]
(§9) First, the 10 mM stock solution of test compound was diluted with DMSO in a 4-fold successive gradient for 10 concentrations. 2 μL DMSO-diluted compound was added to 998 μL of the culture medium containing 10% FBS. Therefore, the maximum concentration of the compound is 20 μM, the concentration of DMSO is 0.2%, and there are 10 concentration gradients in total.
(§10) 1) Preparing the cell suspension
(§11) The culture medium was removed from the culture bottle. The cells were rinsed twice with PBS. The pancreatic enzyme was added to digest cells. The digested cells were collected by centrifuge. The cells were resuspended with a culture medium containing 10% fetal calf serum, counted and adjusted to an appropriate concentration (the cell viability should be over 90%). The cell concentration was 5×10^4/ml.
(§12) 2) The cell suspension was added to the 96-well plate, 100 μL per well.
(§13) 3) The plate was placed in the incubator and incubated at 37° C. under 5% CO2 overnight.
(§14) Drugs were added to the cell culture plate. The plate was placed in the incubator and incubated at 37° C. under 5% CO2 for 72 hours.
(§15) 5. Testing the cell viability with the XTT method
(§16) The XTT working solution was added to the plate. The plate was placed in the incubator and incubated at 37° C. under 5% CO2 for 2 hr. Then the plate was placed in a microplate reader to read the absorbance at 450 nm.
(§17) 2) Data were input into GraphPad Prism 5.0 to plot a curve and obtain IC50.

[2] = tested on: SKOV3 cells (Ovarian carcinoma); assay: In vitro cellular inhibitory activity, XTT method; assay type: cell-based; conditions: Homo sapiens, SK-OV-3, 72 hours, read-out: in vitro cellular inhibitory activities on SKOV3 IC50
Method: as §1, §2, §3, §4, §5, §6, §7, §8, §9, §10, §11, §12, §13, §14, §15, §16, §17

[3] = biological target: T1, EGFR: human epidermal growth factor receptor (Homo sapiens, UniProt P00533); assay: In vitro enzyme inhibitory activity (Caliper, FAM labeled peptide); assay type: biochemical; conditions: EGFR kinase, 28° C., 1 h
T1 construct: purchased Carna
T1 sequence (P00533 25-1210): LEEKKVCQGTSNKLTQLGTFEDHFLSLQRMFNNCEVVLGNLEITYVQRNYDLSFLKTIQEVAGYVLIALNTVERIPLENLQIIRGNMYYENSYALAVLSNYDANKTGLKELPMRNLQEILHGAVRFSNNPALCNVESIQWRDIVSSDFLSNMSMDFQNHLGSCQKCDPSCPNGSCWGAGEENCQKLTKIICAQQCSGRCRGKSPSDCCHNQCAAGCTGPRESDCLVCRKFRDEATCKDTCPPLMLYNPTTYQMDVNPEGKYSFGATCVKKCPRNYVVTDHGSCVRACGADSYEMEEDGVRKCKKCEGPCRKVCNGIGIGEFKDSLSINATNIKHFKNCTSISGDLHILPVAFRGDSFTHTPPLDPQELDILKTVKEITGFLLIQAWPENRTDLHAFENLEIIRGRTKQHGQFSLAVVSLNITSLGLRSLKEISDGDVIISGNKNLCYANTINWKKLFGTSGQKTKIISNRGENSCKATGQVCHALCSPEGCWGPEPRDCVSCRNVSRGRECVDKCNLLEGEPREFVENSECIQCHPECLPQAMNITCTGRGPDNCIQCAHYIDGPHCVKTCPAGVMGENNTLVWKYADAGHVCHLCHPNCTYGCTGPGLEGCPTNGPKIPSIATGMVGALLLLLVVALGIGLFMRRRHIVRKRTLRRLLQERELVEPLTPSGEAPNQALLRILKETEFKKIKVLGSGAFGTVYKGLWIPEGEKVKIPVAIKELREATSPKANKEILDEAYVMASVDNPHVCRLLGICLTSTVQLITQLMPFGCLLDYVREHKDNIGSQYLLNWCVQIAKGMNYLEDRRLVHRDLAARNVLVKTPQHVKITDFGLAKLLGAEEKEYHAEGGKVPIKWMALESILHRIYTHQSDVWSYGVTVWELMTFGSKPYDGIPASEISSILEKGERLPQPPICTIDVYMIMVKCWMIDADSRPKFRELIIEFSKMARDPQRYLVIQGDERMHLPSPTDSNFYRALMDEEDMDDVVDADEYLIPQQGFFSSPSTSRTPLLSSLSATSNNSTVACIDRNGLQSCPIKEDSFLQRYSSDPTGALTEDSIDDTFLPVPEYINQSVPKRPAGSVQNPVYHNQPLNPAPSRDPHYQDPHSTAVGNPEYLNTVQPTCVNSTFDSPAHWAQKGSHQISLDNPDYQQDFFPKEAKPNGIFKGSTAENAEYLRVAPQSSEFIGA
Method: (§18) In vitro enzyme inhibitory activity of the present compounds
EGFR: human epidermal growth factor receptor (Carna);
(§19) 1. Formulating the agents to be used in the assay
(§20) (3) Stop buffer (100 mM HEPES, pH 7.5, 0.015% Brij-35, 0.2% Coating Reagent #3, 50 mM EDTA);
(§21) (6) 5-fold compound solutions (using 100% DMSO to formulate 50-fold compound solutions having different concentration gradients, and diluting with water by 10 times to obtain 5-fold compound solutions having different concentration gradients);
(§22) 2. Adding 5 μL of a 5-fold compound solution to a 384-well plate;
(§23) 3. Adding 10 μL of a 2.5-fold kinase solution to incubate for 10 min;
(§24) 4. Then adding 10 μL of a 2.5-fold peptide solution, and reacting at 28° C. for 1 h; and
(§25) 5. Finally, adding 25 μL of stop buffer to terminate the reaction, and reading the data with Caliper.
(§26) 6. Curve fitting to obtain an IC50 value. The calculated inhibition ratio (%)=(the maximum conversion rate−the conversion rate)/(the maximum conversion rate−the minimum conversion rate)×100
(§27) The curve fitting was conducted with the Xlfit software to obtain IC50 values.

[4] = biological target: T2, HER2: human epidermal growth factor receptor 2 (Homo sapiens, UniProt P04626); assay: as above; assay type: biochemical; conditions: HER2 kinase, 28° C., 1 h
T2 construct: purchased Carna
T2 sequence (P04626 23-1255): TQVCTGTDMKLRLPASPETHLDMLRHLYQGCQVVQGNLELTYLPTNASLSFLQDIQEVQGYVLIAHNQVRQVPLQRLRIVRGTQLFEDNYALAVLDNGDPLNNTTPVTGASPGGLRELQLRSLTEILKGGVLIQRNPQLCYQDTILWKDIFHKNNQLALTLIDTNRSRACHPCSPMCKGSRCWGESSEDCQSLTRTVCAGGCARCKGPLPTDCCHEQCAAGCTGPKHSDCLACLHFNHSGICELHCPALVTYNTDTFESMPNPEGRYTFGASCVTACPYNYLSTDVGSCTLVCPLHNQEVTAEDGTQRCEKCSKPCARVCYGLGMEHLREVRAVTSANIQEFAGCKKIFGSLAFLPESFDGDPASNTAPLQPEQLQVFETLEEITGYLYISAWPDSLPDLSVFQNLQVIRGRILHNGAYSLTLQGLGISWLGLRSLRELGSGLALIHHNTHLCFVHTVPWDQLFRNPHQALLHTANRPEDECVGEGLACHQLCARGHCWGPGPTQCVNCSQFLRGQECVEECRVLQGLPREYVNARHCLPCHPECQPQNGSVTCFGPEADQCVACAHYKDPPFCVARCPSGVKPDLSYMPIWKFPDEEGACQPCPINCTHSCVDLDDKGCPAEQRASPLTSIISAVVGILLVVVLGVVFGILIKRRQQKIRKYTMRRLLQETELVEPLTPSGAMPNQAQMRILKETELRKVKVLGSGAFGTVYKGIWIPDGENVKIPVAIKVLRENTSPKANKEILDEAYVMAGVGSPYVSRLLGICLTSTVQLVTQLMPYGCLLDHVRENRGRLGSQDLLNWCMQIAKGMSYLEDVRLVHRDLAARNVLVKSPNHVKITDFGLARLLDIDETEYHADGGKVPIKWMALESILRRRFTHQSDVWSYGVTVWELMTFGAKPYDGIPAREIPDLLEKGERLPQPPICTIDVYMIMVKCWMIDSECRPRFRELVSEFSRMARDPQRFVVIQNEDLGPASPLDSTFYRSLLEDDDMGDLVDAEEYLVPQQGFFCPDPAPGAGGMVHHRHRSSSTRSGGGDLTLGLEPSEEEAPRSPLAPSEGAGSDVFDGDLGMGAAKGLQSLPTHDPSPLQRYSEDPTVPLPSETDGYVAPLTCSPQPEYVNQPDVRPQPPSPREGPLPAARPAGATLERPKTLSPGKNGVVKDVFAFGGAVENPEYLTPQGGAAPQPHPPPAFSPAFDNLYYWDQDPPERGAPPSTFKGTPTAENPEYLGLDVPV
Method: as §18
HER2: human epidermal growth factor receptor 2 (Carna);
as §19, §20, §21, §22, §23, §24, §25, §26, §27

[5] = biological target: T3, HER4: human epidermal growth factor receptor 4 (Homo sapiens, UniProt Q15303); assay: as above; assay type: biochemical; conditions: HER4 kinase, 28° C., 1 h
T3 construct: purchased Carna
T3 sequence (Q15303 26-1308): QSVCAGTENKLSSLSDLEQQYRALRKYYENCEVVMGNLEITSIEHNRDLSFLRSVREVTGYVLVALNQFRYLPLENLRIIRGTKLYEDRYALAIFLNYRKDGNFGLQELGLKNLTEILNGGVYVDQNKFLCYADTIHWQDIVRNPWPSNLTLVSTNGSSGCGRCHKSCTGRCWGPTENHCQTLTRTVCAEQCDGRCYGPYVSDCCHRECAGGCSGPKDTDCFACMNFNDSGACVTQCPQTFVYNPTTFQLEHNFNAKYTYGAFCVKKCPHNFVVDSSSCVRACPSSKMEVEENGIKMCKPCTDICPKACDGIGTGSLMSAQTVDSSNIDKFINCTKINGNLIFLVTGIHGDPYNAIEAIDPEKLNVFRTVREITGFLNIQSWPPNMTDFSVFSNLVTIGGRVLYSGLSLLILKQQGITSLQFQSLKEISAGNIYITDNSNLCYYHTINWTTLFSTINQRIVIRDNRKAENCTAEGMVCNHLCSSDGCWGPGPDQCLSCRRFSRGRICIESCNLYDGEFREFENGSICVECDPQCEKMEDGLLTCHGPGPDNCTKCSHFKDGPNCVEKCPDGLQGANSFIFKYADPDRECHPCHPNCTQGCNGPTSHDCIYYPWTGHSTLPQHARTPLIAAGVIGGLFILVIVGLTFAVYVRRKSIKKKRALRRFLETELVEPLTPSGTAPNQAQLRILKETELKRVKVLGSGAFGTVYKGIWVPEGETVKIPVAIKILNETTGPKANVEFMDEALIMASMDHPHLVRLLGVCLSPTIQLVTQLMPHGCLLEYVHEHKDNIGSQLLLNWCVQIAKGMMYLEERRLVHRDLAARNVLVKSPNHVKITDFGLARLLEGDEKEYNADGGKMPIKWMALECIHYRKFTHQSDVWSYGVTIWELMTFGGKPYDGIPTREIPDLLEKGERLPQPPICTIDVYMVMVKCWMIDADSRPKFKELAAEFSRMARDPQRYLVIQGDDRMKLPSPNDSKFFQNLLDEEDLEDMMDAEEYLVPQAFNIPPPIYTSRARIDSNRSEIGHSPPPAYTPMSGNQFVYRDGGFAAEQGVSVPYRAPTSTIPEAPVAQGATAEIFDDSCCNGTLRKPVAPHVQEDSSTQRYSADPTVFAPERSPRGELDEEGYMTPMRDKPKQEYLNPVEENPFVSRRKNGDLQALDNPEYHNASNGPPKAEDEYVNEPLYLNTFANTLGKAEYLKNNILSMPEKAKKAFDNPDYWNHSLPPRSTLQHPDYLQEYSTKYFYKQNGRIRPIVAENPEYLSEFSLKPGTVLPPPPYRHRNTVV
Method: as §18
HER4: human epidermal growth factor receptor 4 (Carna).
as §19, §20, §21, §22, §23, §24, §25, §26, §27

[6] = tested on: A431 cells (Epidermoid carcinoma); assay: In vitro cellular inhibitory activity, XTT method; assay type: cell-based; conditions: Homo sapiens, A-431, 72 hours, read-out: in vitro cellular inhibitory activities on A431 IC50
Method: as §1, §2, §3, §4, §5, §6, §7, §8, §9, §10, §11, §12, §13, §14, §15, §16, §17

Structure (SMILES)	IC50 [1] [nM]	IC50 [2] [µM]	IC50 [3] [nM]	IC50 [4] [nM]	IC50 [5] [nM]	IC50 [6] [nM]
COc1cc2ncnc(Nc3ccc(F)c(Cl)c3)c2cc1NC(=O)/C=C/CN1CCC2(CC2)C1 [Compound 26, (E)-N-[4-(3-chloro-4-fluorophenylamino)-7-methoxyquinazolin-6-yl]-4-(5-azaspiro[2.4]heptan-5-yl)-2-butenamide]	85.6	3.07				
COc1cc2ncnc(Nc3ccc(F)c(Cl)c3)c2cc1NC(=O)/C=C/CN1CCC2(CCC2)C1 [Compound 27, (E)-N-[4-(3-chloro-4-fluorophenylamino)-7-methoxyquinazolin-6-yl]-4-[6-azaspiro[3.4]octan-6-yl]-2-butenamide]	91.9	3.19				
COc1cc2ncnc(Nc3ccc(F)c(Cl)c3)c2cc1NC(=O)/C=C/CN1CC2CC2C1 (stereo not drawn) [Compound 1, (E)-4-[3-azabicyclo[3.1.0]hexan-3-yl]-N-[4-(3-chloro-4-fluorophenylamino)-7-methoxyquinazolin-6-yl]-2-butenamide]			0.55	14	3.1	
COc1cc2ncnc(Nc3ccc(F)c(Cl)c3)c2cc1NC(=O)/C=C/CN1CC2(CCCC2)C1 [Compound 14, (E)-N-[4-(3-chloro-4-fluorophenylamino)-7-methoxyquinazolin-6-yl]-4-(2-azaspiro[3.4]octan-2-yl)-2-butenamide]	134	3.71				
COc1cc2ncnc(Nc3ccc(F)c(Cl)c3)c2cc1NC(=O)/C=C/CN1CCC2(CC1)CC2 [Compound 30, (E)-N-[4-(3-chloro-4-fluorophenylamino)-7-methoxyquinazolin-6-yl]-4-(6-azaspiro[2.5]octan-6-yl)-2-butenamide]		3.35				
COc1cc2ncnc(Nc3ccc(F)c(Cl)c3)c2cc1NC(=O)/C=C/CN1CCC2(CC1)COC2 [Compound 29, (E)-N-[4-(3-chloro-4-fluorophenylamino)-7-methoxyquinazolin-6-yl]-4-(2-oxa-7-azaspiro[3.5]nonan-7-yl)-2-butenamide]	57.1					
COc1cc2ncnc(Nc3ccc(F)c(Cl)c3)c2cc1NC(=O)/C=C/CN1CCC2(CCC2)CC1 [Compound 17, (E)-N-[4-(3-chloro-4-fluorophenylamino)-7-methoxyquinazolin-6-yl]-4-(7-azaspiro[3.5]nonan-7-yl)-2-butenamide]		3.06				
COc1cc2ncnc(Nc3ccc(F)c(Cl)c3)c2cc1NC(=O)/C=C/CN1CCCCC1 [PF-00299804, reference compound]	356	3.96				548
COc1cc2ncnc(Nc3ccc(F)c(Cl)c3)c2cc1NC(=O)/C=C/CN1CCCC2(COC2)C1 [Compound 28, (E)-N-[4-(3-chloro-4-fluorophenylamino)-7-methoxyquinazolin-6-yl]-4-[2-oxa-6-azaspiro[3.5]nonan-6-yl]-2-butenamide]	39					
COc1cc2ncnc(Nc3ccc(F)c(Cl)c3)c2cc1NC(=O)/C=C/CN1CC2(CCC2)C1 [Compound 2]	148	3.22	0.65	19	8.9	33.3
COc1cc2ncnc(Nc3ccc(F)c(Cl)c3)c2cc1NC(=O)/C=C/CN1CC2(CCCCC2)C1 [Compound 15, (E)-N-[4-(3-chloro-4-fluorophenylamino)-7-methoxyquinazolin-6-yl]-4-(2-azaspiro[3.5]nonan-2-yl)-2-butenamide]	179	3.65				
